# Assays:
# Type in all cases: cell-based
# E. coli DH5α = experiment: Antibacterial activity: MIC and growth curve against E. coli DH5α in 96-well plate; settings: minimal inhibitory concentration against E. coli DH5α; 96-well plate, 5×10^5 CFU/mL, 37° C., judged after 8 h
# Outline: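 MIC taken as lowest protein level with no bacterial growth, tracked by A600 every 30 min during 37 °C, 175 rpm culture. Two-fold protein series 50-12.5 μg/mL final, triplicate wells, against 5×10^5 CFU/mL of LB-washed mid-log cells.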
# E. coli BL21 = experiment: MIC against Gram-negative bacteria: E. coli BL21
# Outline: (§1)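 LB broth cultures at McFarland 0.5, spun down, resuspended, diluted to 5×10^5 CFU/mL final. Two-fold serial dilutions of purified human EGF domain proteins, triplicate. 37° C, 175 rpm shaking. Endpoint: no visible growth.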
# Pseudomonas aeruginosa = experiment: MIC against Gram-negative bacteria: Pseudomonas aeruginosa
# Outline: as §1
# Klebsiella pneumonia = experiment: MIC against Gram-negative bacteria: Klebsiella pneumonia
# Outline: as §1
# Enterobacter cloacae = experiment: MIC against Gram-negative bacteria: Enterobacter cloacae
# Outline: as §1
# Aeromonas hydrophila = experiment: MIC against Gram-negative bacteria: Aeromonas hydrophila
# Outline: as §1
# Citrobacter diversus = experiment: MIC against Gram-negative bacteria: Citrobacter diversus
# Outline: as §1
# Moraxella catarrhalis = experiment: MIC against Gram-negative bacteria: Moraxella catarrhalis
# Outline: as §1
# Proteus mirabilis = experiment: MIC against Gram-negative bacteria: Proteus mirabilis
# Outline: as §1
# Proteus vulgaris = experiment: MIC against Gram-negative bacteria: Proteus vulgaris
# Outline: as §1
# Serratia marcescens = experiment: MIC against Gram-negative bacteria: Serratia marcescens
# Outline: as §1
# [1] = 96-well plate, 5×10^5 CFU/mL, 37° C., 10 h
# [2] = E. coli BL21, 10 h cultivation at 37° C., 5×10^5 CFU/mL
# [3] = P. aeruginosa, 10 h cultivation at 37° C., 5×10^5 CFU/mL
# [4] = K. pneumonia, 10 h cultivation at 37° C., 5×10^5 CFU/mL
# [5] = E. cloacae, 10 h cultivation at 37° C., 5×10^5 CFU/mL
# [6] = A. hydrophila, 10 h cultivation at 37° C., 5×10^5 CFU/mL
# [7] = C. diversus, 10 h cultivation at 37° C., 5×10^5 CFU/mL
# [8] = M. catarrhalis, 10 h cultivation at 37° C., 5×10^5 CFU/mL
# [9] = P. mirabilis, 10 h cultivation at 37° C., 5×10^5 CFU/mL
# [10] = P. vulgaris, 10 h cultivation at 37° C., 5×10^5 CFU/mL
# [11] = S. marcescens, 10 h cultivation at 37° C., 5×10^5 CFU/mL
substance,measurement,setting,value
PRT545 (CNCSGPGIQELTDPTCDTDSGQCKCRPNVTGRRCDTCSPGFHGYPRCRP; listed as Homo sapiens),MIC,E. coli DH5α,12.5 µg/mL
same,MIC against E. coli BL21,E. coli BL21; [1],12.5 µg/mL
same,MIC against P. aeruginosa,Pseudomonas aeruginosa; [1],12.5 µg/mL
same,MIC against K. pneumonia,Klebsiella pneumonia; [1],25 µg/mL
same,MIC against E. cloacae,Enterobacter cloacae; [1],12.5 µg/mL
same,MIC against A. hydrophila,Aeromonas hydrophila; [1],25 µg/mL
same,MIC against C. diversus,Citrobacter diversus; [1],12.5 µg/mL
same,MIC against M. catarrhalis,Moraxella catarrhalis; [1],12.5 µg/mL
same,MIC against P. mirabilis,Proteus mirabilis; [1],12.5 µg/mL
same,MIC against P. vulgaris,Proteus vulgaris; [1],12.5 µg/mL
same,MIC against S. marcescens,Serratia marcescens; [1],50 µg/mL
PRT847 (CDCSPHGALSIPCNSSGKCQCKVGVIGSICDRCQDGYYGFSKNGCLP; listed as Homo sapiens),MIC,E. coli DH5α,12.5 µg/mL
same,MIC (μg/mL) E. coli BL21,E. coli BL21; [2],25 µg/mL
same,MIC (μg/mL) P. aeruginosa,Pseudomonas aeruginosa; [3],12.5 µg/mL
same,MIC (μg/mL) K. pneumonia,Klebsiella pneumonia; [4],12.5 µg/mL
same,MIC (μg/mL) E. cloacae,Enterobacter cloacae; [5],25 µg/mL
same,MIC (μg/mL) A. hydrophila,Aeromonas hydrophila; [6],12.5 µg/mL
same,MIC (μg/mL) C. diversus,Citrobacter diversus; [7],25 µg/mL
same,MIC (μg/mL) M. catarrhalis,Moraxella catarrhalis; [8],12.5 µg/mL
same,MIC (μg/mL) P. mirabilis,Proteus mirabilis; [9],12.5 µg/mL
same,MIC (μg/mL) P. vulgaris,Proteus vulgaris; [10],12.5 µg/mL
same,MIC (μg/mL) S. marcescens,Serratia marcescens; [11],12.5 µg/mL
PRT824 (YGPGCEQLCGCLNGGSCDAATGACRCPTGFLGTDCN; listed as Homo sapiens),MIC,E. coli DH5α,12.5 µg/mL
same,MIC (μg/mL) E. coli BL21,E. coli BL21; [2],25 µg/mL
same,MIC (μg/mL) P. aeruginosa,Pseudomonas aeruginosa; [3],50 µg/mL
same,MIC (μg/mL) K. pneumonia,Klebsiella pneumonia; [4],25 µg/mL
same,MIC (μg/mL) E. cloacae,Enterobacter cloacae; [5],12.5 µg/mL
same,MIC (μg/mL) A. hydrophila,Aeromonas hydrophila; [6],25 µg/mL
same,MIC (μg/mL) C. diversus,Citrobacter diversus; [7],50 µg/mL
same,MIC (μg/mL) M. catarrhalis,Moraxella catarrhalis; [8],25 µg/mL
same,MIC (μg/mL) P. mirabilis,Proteus mirabilis; [9],12.5 µg/mL
same,MIC (μg/mL) P. vulgaris,Proteus vulgaris; [10],50 µg/mL
same,MIC (μg/mL) S. marcescens,Serratia marcescens; [11],25 µg/mL
PRT84 (EAGRCVPGVCRNGGTCTDAPNGGFRCQCPAGGAFEGPRCE; listed as Homo sapiens),MIC,E. coli DH5α,12.5 µg/mL
same,MIC (μg/mL) E. coli BL21,"E. coli BL21; E. coli BL21, 96-well plate, 5×10^5 CFU/mL, 37° C., 10 h",25 µg/mL
same,MIC (μg/mL) P. aeruginosa,"Pseudomonas aeruginosa; Pseudomonas aeruginosa, 96-well plate, 5×10^5 CFU/mL, 37° C., 10 h",12.5 µg/mL
same,MIC (μg/mL) K. pneumonia,"Klebsiella pneumonia; Klebsiella pneumonia, 96-well plate, 5×10^5 CFU/mL, 37° C., 10 h",25 µg/mL
same,MIC (μg/mL) E. cloacae,"Enterobacter cloacae; Enterobacter cloacae, 96-well plate, 5×10^5 CFU/mL, 37° C., 10 h",12.5 µg/mL
same,MIC (μg/mL) A. hydrophila,"Aeromonas hydrophila; Aeromonas hydrophila, 96-well plate, 5×10^5 CFU/mL, 37° C., 10 h",25 µg/mL
same,MIC (μg/mL) C. diversus,"Citrobacter diversus; Citrobacter diversus, 96-well plate, 5×10^5 CFU/mL, 37° C., 10 h",12.5 µg/mL
same,MIC (μg/mL) M. catarrhalis,"Moraxella catarrhalis; Moraxella catarrhalis, 96-well plate, 5×10^5 CFU/mL, 37° C., 10 h",25 µg/mL
same,MIC (μg/mL) P. mirabilis,"Proteus mirabilis; Proteus mirabilis, 96-well plate, 5×10^5 CFU/mL, 37° C., 10 h",12.5 µg/mL
same,MIC (μg/mL) P. vulgaris,"Proteus vulgaris; Proteus vulgaris, 96-well plate, 5×10^5 CFU/mL, 37° C., 10 h",25 µg/mL
same,MIC (μg/mL) S. marcescens,"Serratia marcescens; Serratia marcescens, 96-well plate, 5×10^5 CFU/mL, 37° C., 10 h",12.5 µg/mL
PRT946 (EVDECQNQPCQNGGTCIDLVNHFKCSCPPGTRGLLCE; listed as Homo sapiens),MIC,E. coli DH5α,50 µg/mL
same,MIC,"E. coli BL21; E. coli BL21, 10 h cultivation at 37° C.",12.5 µg/mL
same,MIC,"Pseudomonas aeruginosa; P. aeruginosa, 10 h cultivation at 37° C.",50 µg/mL
same,MIC,"Klebsiella pneumonia; K. pneumonia, 10 h cultivation at 37° C.",12.5 µg/mL
same,MIC,"Enterobacter cloacae; E. cloacae, 10 h cultivation at 37° C.",50 µg/mL
same,MIC,"Aeromonas hydrophila; A. hydrophila, 10 h cultivation at 37° C.",25 µg/mL
same,MIC,"Citrobacter diversus; C. diversus, 10 h cultivation at 37° C.",12.5 µg/mL
same,MIC,"Moraxella catarrhalis; M. catarrhalis, 10 h cultivation at 37° C.",50 µg/mL
same,MIC,"Proteus mirabilis; P. mirabilis, 10 h cultivation at 37° C.",25 µg/mL
same,MIC,"Proteus vulgaris; P. vulgaris, 10 h cultivation at 37° C.",12.5 µg/mL
same,MIC,"Serratia marcescens; S. marcescens, 10 h cultivation at 37° C.",50 µg/mL
PRT697 (DVDECAQEPPPCGPGRCDNTAGSFHCACPAGFRSRGPGAPCQ; listed as Homo sapiens),MIC,E. coli DH5α,25 µg/mL
same,MIC E. coli BL21,E. coli BL21; [1],25 µg/mL
same,MIC P. aeruginosa,Pseudomonas aeruginosa; [1],50 µg/mL
same,MIC K. pneumonia,Klebsiella pneumonia; [1],12.5 µg/mL
same,MIC E. cloacae,Enterobacter cloacae; [1],50 µg/mL
same,MIC A. hydrophila,Aeromonas hydrophila; [1],25 µg/mL
same,MIC C. diversus,Citrobacter diversus; [1],12.5 µg/mL
same,MIC M. catarrhalis,Moraxella catarrhalis; [1],50 µg/mL
same,MIC P. mirabilis,Proteus mirabilis; [1],12.5 µg/mL
same,MIC P. vulgaris,Proteus vulgaris; [1],25 µg/mL
same,MIC S. marcescens,Serratia marcescens; [1],25 µg/mL
